# Entries after “also recorded” stand apart in the source; their conditions may differ.
# Columns and labels:
# [1] = described in literature; listed as erufosine; cited from earlier work
# Sky1-353 R281C mutant = target: T1, Sky1-353 R281C mutant (Drosophila melanogaster, UniProt Q9VIH7, R281C); experiment: Thermal shift assay, IP3 binding to Sky1-353 R281C; conditions: saturating amount of IP3, R281C mutant
# T1 construct: the TBC domain of Sky (Sky1-353) was expressed from the pET28a vector (Novagen) as an N-terminal His6-tag fusion; His6 (N); made in house; host or cells: E. coli C41 (DE3)
# Experimental: (§1) The thermal stability of the R79C and R281C mutants in absence of ligands (Tm=32° C.) is somewhat lower compared to the wild type protein (Tm=34° C.) and the R335P mutant (Tm=35° C.). […] These experimental data moreover correspond with our structural data where R79 and R281 both form bifurcated electrostatic interactions with the phosphate on position 5, while R335 forms a single electrostatic interaction with the phosphate group on position 1 (FIG. 3e).
# (§2) Thermal unfolding was detected by following SYPRO orange fluorescence using a CFX connect Real-Time PCR System (BioRad). […] The temperature was increased from 20° C. to 80° C. at 0.5° C./30s steps. All measurements were done in triplicate.
# Sky1-353 R335P mutant = target: T2, Sky1-353 R335P mutant (Drosophila melanogaster, UniProt Q9VIH7, R335P); experiment: Thermal shift assay, IP3 binding to Sky1-353 R335P
# T2 construct: the TBC domain of Sky (Sky1-353) was expressed from the pET28a vector (Novagen) as an N-terminal His6-tag fusion; His6 (N); made in house; host or cells: E. coli C41 (DE3)
# Experimental: as §1, §2
# Sky1-353 R79C mutant = target: T3, Sky1-353 R79C mutant (Drosophila melanogaster, UniProt Q9VIH7, R79C); experiment: Thermal shift assay, IP3 binding to Sky1-353 R79C
# T3 construct: the TBC domain of Sky (Sky1-353) was expressed from the pET28a vector (Novagen) as an N-terminal His6-tag fusion; His6 (N); made in house; host or cells: E. coli C41 (DE3)
# Experimental: as §1, §2
# [2] = target: T4, wild type Sky1-353 (TBC domain of Skywalker) (Drosophila melanogaster, UniProt Q9VIH7); experiment: Thermal shift assay, ligand binding to wild type Sky1-353
# T4 construct: the TBC domain of Sky (Sky1-353) was expressed from the pET28a vector (Novagen) as an N-terminal His6-tag fusion; His6 (N); made in house; host or cells: E. coli C41 (DE3)
# T4 sequence (Q9VIH7 1-353): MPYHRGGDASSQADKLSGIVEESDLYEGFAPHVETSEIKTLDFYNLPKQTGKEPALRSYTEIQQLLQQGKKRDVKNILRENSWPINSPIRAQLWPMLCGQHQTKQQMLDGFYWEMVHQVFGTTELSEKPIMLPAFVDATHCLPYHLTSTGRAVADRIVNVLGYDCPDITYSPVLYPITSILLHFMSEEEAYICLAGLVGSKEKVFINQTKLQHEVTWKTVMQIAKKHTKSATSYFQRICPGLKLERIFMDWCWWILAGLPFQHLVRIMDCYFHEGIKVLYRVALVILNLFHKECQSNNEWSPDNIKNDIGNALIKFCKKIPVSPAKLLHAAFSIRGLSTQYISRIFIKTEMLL
# Experimental: as §2
# [3] = target: T5, 5′-phosphatase domain of Synaptojanin-1 (Homo sapiens, UniProt O43426); experiment: Malachite Green phosphatase assay; assay type: biochemical; conditions: 1 mM compound, 1% DMSO, 40 μM IP3 substrate, 1 h, background subtracted
# T5 construct: made in house
# From the text: First, an expression plasmid for the recombinant expression of the 5′-phosphatase domain of Synj1 (SEQ ID NO:1) was constructed. […] A commercially available assay in a 96-well plate format is the Malachite Green Phosphate Assay Kit (BioAssay Systems).
# After assay optimization, the assay is used to measure inhibitory activity of known compounds as well as to further allow a high-throughput setup for compound screening.
# The Malachite Green Phosphate Assay Kit (BioAssay Systems) is a discontinuous assay that measures the concentrations of enzymatically released phosphate after formation of a complex with malachite green and molybdate (absorbance is measured at 620 nm). […] As a read-out the Absorbance at 620 nm after 60 min incubation is measured and the background starting signal is subtracted. For inhibitory compound screening, 1 mM of the test compound dissolved in 1% DMSO was used.
# [4] = test system: sky^1/2 mutants expressing Sky^R79C; experiment: Seizure assay in drug-fed flies; assay type: in vivo, Drosophila; conditions: for rescue of seizure-like behaviour: versus mock-treated
# Experimental: To assure that stimulation of PI(4,5)P2 levels in vivo can rescue the defects associated with the Skywalker cationic pocket mutants (Sky^R79C), a commercially available alkyl phospholipid compound, Miltefosine, with known impact on PI(4,5)P2 levels was tested for treatment of gender selected adult 4-7 day old sky^1/2 flies with cationic pocket mutations. For drug feeding, 10-20 flies per treatment vial were maintained in a 12 h light and dark cycle to maintain circadian rhythm, while the analysis was performed on 5 flies per vial for flight, after acclimatization to the test chamber, and 10 flies per vial for stimulation or behavioural challenge by vortexing. In total n=20 flies were analyzed per treatment as well as for the control flies reared on normal food (mock-treated). The effect of Miltefosine (Sigma, M5571) daily administered in dyed food at 50 μg/mL or at 100 μg/mL was tested over a feeding period of 2 and 8 days of drug exposure, after which animal behaviour was analyzed via flight and seizure assays.
# Each data point represents averages of 10 animals tested over 8 days and analyzed per drug treatment as well as the control flies reared on normal food (mock-treated).
# For drug treatment, a concentration range between […] was tested for daily administration. […] Treatments were performed and were tested over a feeding period of 2 and 8 days of drug exposure, after which animal behaviour was tested in flight and seizure assays.
# Adult flies of the genotype sky^1/sky^2 (sky^1/2); nsyb-Gal4/UAS-Sky^R79C or genotypes as indicated, were raised at 21° C. on standard fly food, containing the indicated drugs (Miltefosine, Perifosine, Edelfosine, Erufosine) or on control food prepared without drugs. Animals were collected and gender selected 2 to 5 days after enclosure. On days 2 and 8 of incubation on drugs, flight assays were performed with groups of 5 gender-selected animals in each transparent vial. Following a tap to collect the animals at the bottom of the vial, behaviour was distinguished between walking, jumping and flight. Seizure assays were performed with groups of 10 gender-selected animals that were transferred into transparent vials and excited by vortexing once for 10 seconds in behaviour studies, or in a sequence (1 minute vortexing, 1 minute rest, 1 minute vortexing) for drug treatment studies. This test sequence was repeated following 5 minutes of rest. Active and fallen flies were quantified over the course of the following minute. To ensure natural behaviour animals were not anesthetized on the day of experiments or over the course of drug application.
# wild type Sky1-353 = target: T6, wild type Sky1-353 (Drosophila melanogaster, UniProt Q9VIH7); experiment: Liposome flotation assay; assay type: binding; conditions: for binding of Sky1-353 to liposomes: PC:PS liposomes enriched with 2% of the indicated phosphoinositide
# T6 construct: the TBC domain of Sky (Sky1-353) was expressed from the pET28a vector (Novagen) as an N-terminal His6-tag fusion; His6 (N); made in house; host or cells: E. coli C41 (DE3)
# T6 sequence (Q9VIH7 1-353): T4 sequence (Q9VIH7 1-353)
# From the text: TBC1D24 and Skywalker regulate vesicle trafficking, a process that requires membrane interactions^20,24,30. We therefore hypothesized that the positively charged pocket of Sky serves as a binding module to negatively charged membranes. We used a liposome flotation assay and mixed Sky1-353 with liposomes produced from Folch-extracted total brain lipids and centrifuged the sample in a sucrose gradient. After recovering six fractions from the top to the bottom of the centrifugation tube we find that Sky1-353 is present in the top fractions that contain the liposomes. […] A major class of lipids that regulates presynaptic activity are phosphoinositides^31. Lipid strip interaction experiments using Sky1-353 are indeed compatible with Sky interacting with phosphoinositides. We therefore resorted to liposome flotation assays using liposomes composed of phosphatidylcholine and phosphatidylserine and supplemented with different types of phosphoinositides (FIG. 3b). […] Moreover, the binding can be reversed by adding increasing concentrations of salt, as would be expected from binding that is mainly driven by electrostatic interactions.
# Liposomes were prepared using either Folch brain total lipid extract or using a mix of phosphatidylcholine and phosphatidylserine (80:20 ratio) supplemented with 0.5%, 2% or 5% of a specific phosphoinositide as indicated. The liposomes were subsequently incubated with 6 μg of wild-type or mutant Sky1-353. PI(4,5)P2-Grip (Echelon Biosciences, Salt Lake City, USA) was used as a positive control. Subsequently, this mix was loaded on a sucrose cushion (30% sucrose layer, 25% sucrose layer and HP30 buffer layer) and centrifuged. Individual fractions from the top to the bottom were collected and assayed using Western blotting against His6 (Sky) or GST (PI(4,5)P2-Grip).
# [5] = PI(4,5)P2 varied from 0% to 5% in liposomes
# T5 sequence (O43426 528-873): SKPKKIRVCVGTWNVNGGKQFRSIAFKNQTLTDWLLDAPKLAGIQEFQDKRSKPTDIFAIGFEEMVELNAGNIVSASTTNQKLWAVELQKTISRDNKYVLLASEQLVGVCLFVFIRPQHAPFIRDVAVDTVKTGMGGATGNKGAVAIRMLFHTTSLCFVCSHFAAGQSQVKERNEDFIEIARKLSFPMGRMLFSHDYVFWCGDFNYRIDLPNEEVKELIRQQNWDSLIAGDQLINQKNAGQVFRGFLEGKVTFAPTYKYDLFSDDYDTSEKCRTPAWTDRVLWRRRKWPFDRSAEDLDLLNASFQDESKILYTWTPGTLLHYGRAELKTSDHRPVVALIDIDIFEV
# T3 sequence (Q9VIH7 1-353 R79C): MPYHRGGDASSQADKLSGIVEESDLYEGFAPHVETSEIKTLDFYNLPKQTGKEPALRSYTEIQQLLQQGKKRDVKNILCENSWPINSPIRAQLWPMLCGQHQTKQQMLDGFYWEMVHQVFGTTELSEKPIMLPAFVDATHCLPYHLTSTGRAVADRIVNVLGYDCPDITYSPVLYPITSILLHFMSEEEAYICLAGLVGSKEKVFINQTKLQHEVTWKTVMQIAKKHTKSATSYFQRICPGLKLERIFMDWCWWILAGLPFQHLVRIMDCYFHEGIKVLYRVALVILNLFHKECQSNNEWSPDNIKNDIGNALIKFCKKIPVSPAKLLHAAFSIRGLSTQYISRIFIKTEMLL
# T2 sequence (Q9VIH7 1-353 R335P): as the sequence (Q9VIH7 1-353 R79C) above, with C79R, R335P counted along it
# T1 sequence (Q9VIH7 1-353 R281C): as the sequence (Q9VIH7 1-353 R79C) above, with C79R, R281C counted along it
compound,measurement,setting,value
CCCCCCCC/C=C\CCCCCCCCCCCCOP(=O)([O-])OCC[N+](C)(C)C [Erufosine],blood-brain-barrier crossing,[1],known to allow BBB crossing
"O=P(O)(O)O[C@@H]1[C@H](O)[C@H](O)[C@@H](OP(=O)(O)O)[C@H](OP(=O)(O)O)[C@H]1O [IP3, inositol 1,4,5-trisphosphate]",increase in thermal stability,Sky1-353 R281C mutant,4 °C
same,Kd,Sky1-353 R335P mutant,67 ± 17 µM
same,increase in thermal stability,"Sky1-353 R335P mutant; saturating amount of IP3, R335P mutant",8 °C
same,Kd,Sky1-353 R79C mutant,325 ± 200 µM
same,increase in thermal stability,"Sky1-353 R79C mutant; saturating amount of IP3, R79C mutant",4 °C
same,Kd,[2],19 ± 3 µM
CCCCCCCCCCCCCCCCOP(=O)([O-])OCC[N+](C)(C)C [Miltefosine],inhibition of 5′-phosphatase activity,[3],effective inhibitors; also recorded: complete inhibition
same,rescue of seizure-like behaviour,"[4]; 50 μg/mL in food, 2 days of drug feeding, p<0.001",highly significant; also recorded: significant rescue of seizure-like behaviour
same,rescue of seizure-like behaviour,"[4]; 50 μg/mL in food, 8 days of drug feeding, p<0.1",lasted at least up to 8 days after treatment; also recorded: significant rescue of seizure-like behaviour
same,rescue of seizure-like behaviour,"[4]; 100 μg/mL in food (probably toxic), 2 or 8 days",did not lead to significant difference
CCCCCCCCCCCCCCCCCCOP(=O)([O-])OC1CC[N+](C)(C)CC1 [Perifosine],inhibition of 5′-phosphatase activity,[3],effective inhibitors
same,inhibition of 5′-phosphatase activity,[3]; listed as Perisofine,complete inhibition
same,effect on seizures,"[4]; 1000 μg/mL daily in dyed food, up to 8 days",positive effect
PI(3)P,binding of Sky1-353 to liposomes,wild type Sky1-353,does not bind
"PI(3,4,5)P3",binding of Sky1-353 to liposomes,wild type Sky1-353,strongest binding
PI(4)P,binding of Sky1-353 to liposomes,wild type Sky1-353,weak but significant binding
PI(5)P,binding of Sky1-353 to liposomes,wild type Sky1-353,weak but significant binding
"phosphatidylinositol 4,5-bisphosphate [PI(4,5)P2]",binding of Sky1-353 to liposomes,wild type Sky1-353,strongest binding
same,"PI(4,5)P2 concentration at which full binding is reached",wild type Sky1-353; [5],2%
same,"lowest PI(4,5)P2 concentration at which binding is observed",wild type Sky1-353; [5],0.5%
phosphatidylinositol [PI],binding of Sky1-353 to liposomes,wild type Sky1-353,does not bind
